Values after ≈ are worked out from the molar mass of the structure shown.
Columns and labels:
[1] = design: species or system beagle dogs; settings: dog, in vivo
From the text: Toxicokinetic parameters were estimated using WinNonlin pharmacokinetic software version 5.2.1 (Pharsight Corp.). A non-compartmental approach consistent with the extravascular route of administration was used for parameter estimation. All parameters were generated from individual amikacin and fosfomycin concentrations in plasma from Days 1 and 7.

[2] = test system: Pseudomonas aeruginosa; settings: cited from earlier work
[3] = Aerosol particle size distribution (MMAD) in the dog study; assay type: physicochemical; settings: aerosol of the combined formulation, analytical methods
[4] = test system: Stenotrophomonas maltophilia; settings: cited from earlier work
[5] = test system: Pseudomonas; settings: cited from earlier work
[6] = test system: MRSA; settings: data from the 1980's; cited from earlier work
[7] = test system: pseudomonas isolates; settings: most pseudomonas isolates; cited from earlier work

Structure (SMILES) | accumulation following repeat dosing [1] | factor of increase of in vitro activity of amikacin by fosfomycin [2] | particle size distribution (MMAD) [3] | MIC90 [4] | MIC90 [5] | MIC90 [6] | MIC90 [7]
NCC[C@H](O)C(=O)N[C@@H]1C[C@H](N)[C@@H](O[C@H]2O[C@H](CN)[C@@H](O)[C@H](O)[C@H]2O)[C@H](O)[C@H]1O[C@H]1O[C@H](CO)[C@@H](O)[C@H](N)[C@H]1O [amikacin] | no clear indication of accumulation | 64 | 2.80 μm | > 64 µg/mL | 32 µg/mL (≈ 54.6 µM) |  | 
C[C@@H]1O[C@@H]1P(=O)(O)O [fosfomycin] | no clear indication of accumulation |  |  |  |  | 32 µg/mL (≈ 232 µM) | 
NC[C@H]1O[C@H](O[C@H]2[C@H](O)[C@@H](O[C@H]3O[C@H](CO)[C@@H](O)[C@H](N)[C@H]3O)[C@H](N)C[C@@H]2N)[C@H](N)C[C@@H]1O [tobramycin] |  |  |  |  |  |  | 64 µg/mL (≈ 137 µM)
